Assay results as given in US5593970A, “Heterocyclic anthracycline analogs” (priority 1994, dated 1997).
Where two headings read alike, the source gives them in different places.

How the values were obtained:
CNS = settings: cns cancer cell lines, 48 h
Colon = assay: NCI assay, average per cancer type
Melanoma [1] = assay: NCI assay, average per cancer type
Renal = assay: NCI assay, average per cancer type
tumor cell lines = settings: tumor cell line panel, 48 h
NSC Lung = settings: nsc lung cancer cell lines, 48 h
Ovarian = settings: ovarian cancer cell lines, 48 h
Melanoma [2] = settings: melanoma cell lines, 48 h
solid tumors = assay: NCI assay, mean potency in solid tumors
BE-1 = assay: Soft agar colony formation disk diffusion assay; assay type: cell-based, human
Procedure, shortened: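 Cells were suspended at 10^4 to 2×10^5 per dish in 0.4% Noble agar in RPMI-1066 over a 0.8% agar/Tryptic Soy Broth bottom layer. Compound in DMSO/water was dried onto a 6.5 mm paper disk placed on the upper layer. Read-out was the zone of inhibition from disk edge to nearest colonies (>50 cells), measured by ocular micrometer.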

Leukemia = settings: leukemia cell lines, 48 h
MOLT-4 = assay: NCI sulforhodamine B assay; assay type: cell-based; settings: Homo sapiens, MOLT-4, 48 h; read-out: Log10 TGI (converted)
Method: (§1) These assays were carried out at the Developmental Therapeutics Program, Division of Cancer Treatment, National Cancer Institute (Bethesda, Md., U.S.A.). The method consists of incubating varying concentrations of the drug with an inoculum of cells for two days. […] The 57 cell lines included two mouse leukemia lines (P388 parental and adriamycin resistant) and […] human cell lines.
(§2) It should be noted that the first two parameters (GI50 and TGI) relate to antiproliferation effects while the third one (LC50) indicates true cytotoxicity. A value of -4 or greater is considered to denote resistance (inactivity).

K-562 = assay: NCI sulforhodamine B assay; assay type: cell-based; settings: Homo sapiens, K562, 48 h, read-out: Log10 TGI (converted)
Method: as §1, §2

HCT-116 = assay: NCI sulforhodamine B assay; assay type: cell-based; settings: Homo sapiens
Method: as §1, §2

SNB-78 = assay: NCI sulforhodamine B assay; assay type: cell-based; settings: Homo sapiens, SNB-78, 48 h, read-out: Log10 LC50 (converted)
Method: as §1, §2

XF-498 L = assay: NCI sulforhodamine B assay; assay type: cell-based; settings: Homo sapiens
Method: as §1, §2

OVCAR-8 = assay: NCI sulforhodamine B assay; assay type: cell-based; settings: Homo sapiens, read-out: Log10 GI50 (converted)
Method: as §1, §2

P388 = assay: NCI sulforhodamine B assay; assay type: cell-based; settings: Mus musculus, P388, 48 h
Method: as §1, §2

OVCAR-3 = assay: NCI sulforhodamine B assay; assay type: cell-based; settings: Homo sapiens, read-out: Log10 GI50 (converted)
Method: as §1, §2

CCRF-CEM = assay: NCI sulforhodamine B assay; assay type: cell-based; settings: Homo sapiens, 48 h, read-out: Log10 LC50 (converted)
Method: The method consists of incubating varying concentrations of the drug with an inoculum of cells for two days. […] The 57 cell lines included two mouse leukemia lines (P388 parental and adriamycin resistant) and 56 human cell lines.

UO-31 = assay: NCI sulforhodamine B assay; assay type: cell-based, human
Method: as §1, §2

[3] = Homo sapiens, 48 h, read-out: Average LOG10 LC50
[4] = Homo sapiens, read-out: Average LOG10 GI50

Compound: Methyl(11-hydroxy-5,12-dioxo-3,4,5,12-tetrahydroanthraceno[2,3-c]pyran-3-yl)ketone and Methyl(5-hydroxy-5,12-dioxo-3,4,5,12-tetrahydroanthraceno[2,3-c]pyran-3-yl)ketone [BCH-687]
- Average LOG10 LC50 (CNS): > -4.15 log molar
- Average LOG10 GI50 (Colon; Colon): -4.95 ± 0.28 log molar
- Average LOG10 GI50 (Melanoma [1]; Melanoma): -5.05 ± 0.27 log molar
- Average LOG10 GI50 (Renal; Renal): -4.69 ± 0.23 log molar
- Log10 LC50, Mean / MG-MID (tumor cell lines): -4.10 log molar
- Average LOG10 LC50 (NSC Lung): > -4.23(± 0.07) log molar
- Average LOG10 LC50 (Ovarian): -4.15(± 0.11) log molar
- Average LOG10 LC50 (Melanoma [2]): -4.28(± 0.09) log molar
- Average LOG10 GI50, Mean Potency in solid tumors (solid tumors; solid tumors): -4.87 ± 0.17 log molar
- zone of inhibition (BE-1; 10 μg/DISK): 85.0 ± 44.2 Zone Units
- zone of inhibition (BE-1; 100 μg/DISK): 162.6 ± 70.4 Zone Units
- Average LOG10 LC50 (Leukemia): > -4.00 log molar

Compound: COC(=O)C1CC2=C(C(=O)c3c(cc4ccccc4c3O)C2=O)C(O[C@H]2C[C@H](NC(=O)C(F)(F)F)[C@H](O)[C@H](C)O2)O1 (mixture of isomers) [BCH-242, (1'S,1R,3S) and (1'S, 1S,3R)-Methyl[11-hydroxy-1-2',3',6'-trideoxy-3-trifluroacetamido-L-lyxohexopyranose)-5,12-dioxo-3,4,5,12-tetrahydroanthraceno[2,3-c]pyran-3-yl]formate]
- IC100 (MOLT-4): 3.24 µM
- IC100 (K-562): 4.47 µM
- CC50 (HCT-116; HCT-116, 48 h, read-out: Log10 LC50 (converted)): 0.933 µM
- IC100 (HCT-116; HCT-116, 48 h, read-out: Log10 TGI (converted)): 0.355 µM
- GI50 (HCT-116; HCT-116, read-out: Log10 GI50 (converted)): 0.132 µM
- CC50 (SNB-78): > 100 µM
- CC50 (XF-498 L; XF498, 48 h, read-out: Log10 LC50 (converted)): 6.03 µM
- IC100 (XF-498 L; XF498, 48 h, XF-498 L, read-out: Log10 TGI (converted)): 3.16 µM
- GI50 (XF-498 L; XF498, XF-498 L, read-out: Log10 GI50 (converted)): 1.62 µM
- GI50 (OVCAR-8; OVCAR-8, OVCAR-8): 0.224 µM
- GI50 (OVCAR-8; OVCAR-8): 3.24 µM
- CC50 (P388; read-out: Log10 LC50 (converted)): > 100 µM
- IC100 (P388; read-out: Log10 TGI): > 100 µM
- GI50 (OVCAR-3; OVCAR-3, OVCAR-3): 1.51 µM
- GI50 (OVCAR-3; OVCAR-3): 0.251 µM
- CC50 (CCRF-CEM): > 100 µM
- CC50 (Colon; [3]): 2.57 µM
- GI50 (Colon; [4]): 0.316 µM
- CC50 (Melanoma [1]; [3]): 3.89 µM
- GI50 (Melanoma [1]; [4]): 0.437 µM
- CC50 (Renal; [3]): 6.03 µM
- GI50 (Renal; [4]): 0.955 µM
- Log10 GI50 (UO-31): -5.62 log molar
- Log10 LC50 (UO-31; 2880 min): -4.77 log molar
- GI50 (solid tumors; Homo sapiens, read-out: Average LOG10 GI50, Mean Potency in solid tumors): 0.661 µM
- Average LOG10 LC50, Mean Potency in solid tumors (solid tumors; solid tumors, 2880 min): -5.32 ± 0.20 log molar
